Consider 10 molecules from US8003658B2, “Quinazoline derivatives for inhibiting cancer cell growth and method for the preparation thereof” (Hanmi Holdings Co., Ltd., priority 2004, dated 2011).

One may read the IC50 as the midpoint of a concentration-inhibition curve.

The subject of one assay is SW-620 (ATCC: CCL-227). The experiment in a line: Test of cancer cell growth inhibition (SRB), SW-620. To be noted: Homo sapiens, SW-620, 72 h, read-out: IC50 SW-620.
The test system of a further assay is SK-Br3 (ATCC: HTB-30). The assay is described as follows: Test of cancer cell growth inhibition (SRB), SK-Br3. To be noted: Homo sapiens, SK-BR-3, 72 h, read-out: IC50 SK-Br-3.
The test system of the next assay is A431 (ATCC: CRL-1555). The assay is described as follows: Test of cancer cell growth inhibition (SRB), A431. To be noted: Homo sapiens, A-431, 72 h, read-out: IC50 A431.

Turning to `N#CCC(=O)NCCCC(=O)Nc1ccc2ncnc(Nc3ccc(OCc4cccc(F)c4)c(Cl)c3)c2c1` [Example 93, N-{4-[3-chloro-4-(3-fluoro-benzyloxy)-phenylamino]-quinazolin-6-yl}-4-(2-cyano-acetylamino)-butyramide], the IC50 is greater than 10000 nM in the assay on SW-620 (ATCC: CCL-227), 33 nM in the assay with SK-Br3 (ATCC: HTB-30) and 324 nM with A431 (ATCC: CRL-1555).
For the molecule `O=C(CCl)NCCCC(=O)Nc1ccc2ncnc(Nc3ccc(OCc4cccc(F)c4)c(Cl)c3)c2c1` [Example 102, 4-(2-chloro-acetylamino)-N-{4-[3-chloro-4-(3-fluoro-benzyloxy)-phenylamino]-quinazolin-6-yl}-butyramide], the IC50 is greater than 10000 nM with SW-620 (ATCC: CCL-227), 80 nM in the assay with SK-Br3 (ATCC: HTB-30) and 345 nM in the assay with A431 (ATCC: CRL-1555).
Taken in the same sequence, the figures for `C=CC(=O)NCC(=O)Nc1ccc2ncnc(Nc3ccc(OCc4cccc(F)c4)c(Cl)c3)c2c1` [Example 4, N-({4-[3-chloro-4-(3-fluoro-benzyloxy)-phenylamino]-quinazolin-6-ylcarbamoyl}-methyl)-acrylamide] were greater than 10000 nM, 10 nM and 179 nM.
As to `C=CC(=O)N1CCCC1C(=O)Nc1ccc2ncnc(Nc3ccc(OCc4cccc(F)c4)c(Cl)c3)c2c1` (stereo not drawn) [Example 18, 1-acryloyl-pyrrolidine-2-carboxylic acid {4-[3-chloro-4-(3-fluoro-benzyloxy)-phenylamino]-quinazolin-6-yl}-amide], the IC50 with SW-620 (ATCC: CCL-227) was greater than 10000 nM; with SK-Br3 (ATCC: HTB-30) it was 290 nM; in the assay with A431 (ATCC: CRL-1555), 157 nM.
`C=CC(=O)NCCC(=O)Nc1ccc2ncnc(Nc3cncn3Cc3ccccc3)c2c1` [Example 79, N-{2-[4-(1-benzyl-1H-imidazol-5-ylamino)-quinazolin-6-ylcarbamoyl]-ethyl}-acrylamide]: the IC50 in the assay with SW-620 (ATCC: CCL-227) was greater than 10000 nM; with SK-Br3 (ATCC: HTB-30) it was 3 nM; with A431 (ATCC: CRL-1555), 65 nM.
In the same order, the values of `CN(C)CC(=O)NCCCC(=O)Nc1ccc2ncnc(Nc3ccc(OCc4cccc(F)c4)c(Cl)c3)c2c1` [Example 104, N-{4-[3-chloro-4-(3-fluoro-benzyloxy)-phenylamino]-quinazolin-6-yl}-4-(2-dimethylamino-acetylamino)-butyramide] are greater than 10000 nM, 22 nM and 254 nM.
As for `COCC(=O)NCC(=O)Nc1ccc2ncnc(Nc3ccc(OCc4cccc(F)c4)c(Cl)c3)c2c1` [Example 2-4, N-({4-[3-chloro-4-(3-fluoro-benzyloxy)-phenylamino]-quinazolin-6-ylcarbamoyl}-methyl)-2-methoxy-acetamide], the IC50 is greater than 10000 nM in the assay with SW-620 (ATCC: CCL-227), 245 nM with SK-Br3 (ATCC: HTB-30) and 206 nM in the assay on A431 (ATCC: CRL-1555).
Taken in the same sequence, the figures for `C=CC(=O)NCCCC(=O)Nc1ccc2ncnc(Nc3ccc(Oc4ccc(C)nc4)c(C)c3)c2c1` [Example 101, 4-acryloylamino-N-{4-[3-methyl-4-(6-methyl-pyridin-3-yloxy)-phenylamino]-quinazolin-6-yl}-butyramide] were greater than 10000 nM, 21 nM and 786 nM.
Regarding `COCC(=O)N[C@@H](Cc1ccccc1)C(=O)Nc1ccc2ncnc(Nc3ccc(OCc4cccc(F)c4)c(Cl)c3)c2c1` [Example 5-3, (2S)—N-{4-[3-chloro-4-(3-fluoro-benzyloxy)-phenylamino]-quinazolin-6-yl}-2-(2-methoxy-acetylamino)-3-phenyl-propionamide], the IC50 in the assay on SW-620 (ATCC: CCL-227) is greater than 10000 nM; in the assay with SK-Br3 (ATCC: HTB-30), 106 nM; in the assay on A431 (ATCC: CRL-1555), 315 nM.
For `C=CC(=O)NCC(C)C(=O)Nc1ccc2ncnc(Nc3ccc(OCc4cccc(F)c4)c(Cl)c3)c2c1` (stereo not drawn) [Example 44, N-(2-{4-[3-chloro-4-(3-fluoro-benzyloxy)-phenylamino]-quinazolin-6-ylcarbamoyl}-propyl)-acrylamide], the values for the IC50 with SW-620 (ATCC: CCL-227), in the assay on SK-Br3 (ATCC: HTB-30) and in the assay on A431 (ATCC: CRL-1555) were greater than 10000 nM, 6 nM and 43 nM, respectively.
